Where a name gives a salt, the structure may show the parent alone.
Legend:
MYB mRNA = assay: Splicing RT-qPCR assay, MYB canonical (CJ) and alternative (AJ) junction mRNA; type: cell-based; conditions: Homo sapiens, A673 or K562 cells, 24 hours; for IC50: decrease in canonical junction mRNA; for AC50: increase in alternative junction mRNA
Summary of the method: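 A673 or K562 cells were treated 24 h at 37 °C with compounds in an 11-point 3-fold dilution series (top final 10 uM, DMSO ≤0.25%). Lysates were analysed by one-step RT-qPCR for canonical (CJ) and alternative-exon (AJ) junction isoforms, normalized to GAPDH, GUSB or PPIA.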

Target C = assay: HiBiT protein abundance assay, Target C (K562 HiBiT knock-in cells); type: cell-based, human; conditions: 24 hours
Summary of the method: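 K562 knock-in cells (10000/well, IMDM+1% FBS) treated 24 h at 37 °C with 10-point 3-fold dilutions, top final 10 μM, DMSO ≤0.25%. HiBiT lytic luminescence read; response normalized to unmodified K562 and DMSO-treated controls. IC50 interpolated at 50% abundance by four-parameter logistic fit.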

IC50 (MYB mRNA) [µM]	IC50 (Target C) [µM]	Structure (SMILES)	AC50 (MYB mRNA) [µM]
0.1 to 1	1 to 10	Cc1cn2cc(NC(=O)c3ccc(N4CCN5CCC[C@H]5C4)c4ccnnc34)cc(F)c2n1 [Compound 154]	0.1 to 1
< 0.1	1 to 10	CCC1CN(c2ccc(C(=O)Nc3cc(F)c4nc(C)cn4c3)c3nnccc23)CCN1 (stereo not drawn) [Compound 130]	0.1 to 1
< 0.1	1 to 10	CC[C@@H]1CN(c2ccc(C(=O)Nc3cc(F)c4nc(C)cn4c3)c3nnccc23)CCN1 [Compound 151]	0.1 to 1
0.1 to 1	1 to 10	CNC1CCN(c2ccc(C(=O)Nc3cc(F)c4nc(C)cn4c3)c3nc(C)ccc23)C1 (stereo not drawn) [Compound 196, N-{8-fluoro-2-methylimidazo[1,2-a]pyridin-6-yl}-2-methyl-5-[3-(methylamino)pyrrolidin-1-yl]quinoline-8-carboxamide 2,2,2-trifluoroacetate]	0.1 to 1
< 0.1	0.1 to 1	CN[C@H]1CCN(c2ccc(C(=O)Nc3cc(F)c4nc(C)cn4c3)c3nccnc23)C1 (single isomer, unassigned) [Compound 194, N-{8-fluoro-2-methylimidazo[1,2-a]pyridin-6-yl}-8-[3-(methylamino)pyrrolidin-1-yl]quinoxaline-5-carboxamide]	0.1 to 1
0.1 to 1	1 to 10	CCN1CCC(c2ccc(C(=O)Nc3cc(F)c4nc(C)cn4c3)c3nnccc23)CC1 [Compound 141]	0.1 to 1
0.1 to 1	1 to 10	Cc1cn2cc(NC(=O)c3ccc(N4CCN(C)CC4)c4ccnnc34)cc(F)c2n1 [Compound 127]	1 to 10
1 to 10	1 to 10	CNCC1CCN(c2ccc(C(=O)Nc3cc(F)c4nc(C)cn4c3)c3nccnc23)CC1 [Compound 192, N-{8-fluoro-2-methylimidazo[1,2-a]pyridin-6-yl}-8-{4-[(methylamino)methyl]piperidin-1-yl}quinoxaline-5-carboxamide trifluoroacetate]	1 to 10
< 0.1	1 to 10	Cc1cnc2c(C(=O)Nc3cc(F)c4nc(C)cn4c3)ccc(N3CCC(N(C)C)CC3)c2n1 [Compound 208, 8-[4-(dimethylamino)piperidin-1-yl]-N-{8-fluoro-2-methylimidazo[1,2-a]pyridin-6-yl}-2-methylquinoxaline-5-carboxamide; bis(trifluoroacetic acid)]	< 0.1
1 to 10	1 to 10	Cc1cn2cc(NC(=O)c3ccc(N4CCC(N5CCCC5)C4)c4ccnnc34)cc(F)c2n1 (stereo not drawn) [Compound 133]	0.1 to 1
0.1 to 1	> 10	Cc1cn2cc(NC(=O)c3ccc(N4C[C@@H](C)N[C@@H](C)C4)c4ccnnc34)nc(C)c2n1 [Compound 172, N-{2,8-dimethylimidazo[1,2-a]pyrazin-6-yl}-5-[(3R,5S)-3,5-dimethylpiperazin-1-yl]cinnoline-8-carboxamide]	< 0.1
0.1 to 1	1 to 10	CN[C@@H]1CCN(c2ccc(C(=O)Nc3cc(F)c4nc(C)cn4c3)c3nccnc23)C1 (single isomer, unassigned) [Compound 193, N-{8-fluoro-2-methylimidazo[1,2-a]pyridin-6-yl}-8-[3-(methylamino)pyrrolidin-1-yl]quinoxaline-5-carboxamide]	0.1 to 1
< 0.1	1 to 10	Cc1cn2cc(NC(=O)c3ccc(N4CC(C)(C)NC(C)(C)C4)c4nccnc34)cc(F)c2n1 [Compound 219, N-{8-fluoro-2-methylimidazo[1,2-a]pyridin-6-yl}-8-(3,3,5,5-tetramethylpiperazin-1-yl)quinoxaline-5-carboxamide]	< 0.1
< 0.1	0.1 to 1	COc1cnc2c(N3C[C@@H](C)N[C@@H](C)C3)ccc(C(=O)Nc3cc(F)c4nc(C)cn4c3)c2n1 [Compound 205, 8-[(3R,5S)-3,5-dimethylpiperazin-1-yl]-N-{8-fluoro-2-methylimidazo[1,2-a]pyridin-6-yl}-3-methoxyquinoxaline-5-carboxamide; trifluoroacetic acid]	< 0.1
1 to 10	> 10	Cc1cn2cc(NC(=O)c3ccc(N4CCNC5(COC5)C4)c4nccnc34)cc(F)c2n1 [Compound 372]	1 to 10
0.1 to 1	0.1 to 1	Cc1cn2nc(NC(=O)c3ccc(N4CCNCC4)c4ccnnc34)cc(C)c2n1 [Compound 100]	0.1 to 1
1 to 10	> 10	Cc1cn2cc(NC(=O)c3ccc(N4CCN(CCF)C5(CC5)C4)c4nccnc34)cc(F)c2n1 [Compound 370]	> 10
1 to 10	1 to 10	CN[C@@H]1CCN(c2ccc(C(=O)Nc3cc(F)c4nc(C)cn4c3)c3nc(OC)cnc23)C1 [Compound 204, (R)—N-{8-fluoro-2-methylimidazo[1,2-a]pyridin-6-yl}-3-methoxy-8-[3-(methylamino)pyrrolidin-1-yl]quinoxaline-5-carboxamide; trifluoroacetic acid]	> 10
0.1 to 1	1 to 10	Cc1cnc2c(N3C[C@@H](C)N[C@@H](C)C3)ccc(C(=O)Nc3cc(F)c4nc(C)cn4c3)c2n1 [Compound 216, 8-((3R,5S)-3,5-dimethylpiperazin-1-yl)-N-{8-fluoro-2-methylimidazo[1,2-a]pyridin-6-yl}-3-methylquinoxaline-5-carboxamide]	< 0.1
< 0.1	1 to 10	Cc1cn2cc(NC(=O)c3ccc(N4CCNC(C)(C)C4)c4nccnc34)cc(F)c2n1 [Compound 220, 8-(3,3-dimethylpiperazin-1-yl)-N-{8-fluoro-2-methylimidazo[1,2-a]pyridin-6-yl}quinoxaline-5-carboxamide]	< 0.1
< 0.1	1 to 10	Cc1cn2cc(NC(=O)c3ccc(N4CCN[C@@H](C)C4)c4nccnc34)cc(F)c2n1 [Compound 187, N-{8-fluoro-2-methylimidazo[1,2-a]pyridin-6-yl}-8-(3-methylpiperazin-1-yl) quinoxaline-5-carboxamide]	< 0.1
< 0.1	1 to 10	Cc1cn2cc(NC(=O)c3ccc(N4CCNC5(CC5)C4)c4nccnc34)cc(F)c2n1 [Compound 218, 8-{4,7-diazaspiro[2.5]octan-7-yl}-N-{8-fluoro-2-methylimidazo[1,2-a]pyridin-6-yl}quinoxaline-5-carboxamide]	< 0.1
0.1 to 1	> 10	Cc1cn2cc(NC(=O)c3ccc(N4C[C@@H](C)NC5(CC5)C4)c4nccnc34)cc(F)c2n1 [Compound 376]	0.1 to 1
0.1 to 1	1 to 10	Cc1cn2cc(NC(=O)c3ccc(N4CCC(NC(C)(C)C)CC4)c4ccnnc34)cc(F)c2n1 [Compound 138]	0.1 to 1
0.1 to 1	1 to 10	Cc1cn2cc(NC(=O)c3ccc(N4CCNC5(CCOCC5)C4)c4nccnc34)cc(F)c2n1 [Compound 374]	0.1 to 1
< 0.1	0.1 to 1	COc1cnc2c(C(=O)Nc3cc(F)c4nc(C)cn4c3)ccc(N3C[C@@H](C)N[C@@H](C)C3)c2n1 [Compound 223]	< 0.1
1 to 10	1 to 10	Cc1cn2nc(NC(=O)c3ccc(N4CCNCC4)c4ccnnc34)cc2c(C)n1 [Compound 123]	1 to 10

— patent US20240409536A1, “COMPOUNDS AND METHODS FOR MODULATING SPLICING” (REMIX THERAPEUTICS INC., priority 2021, published 2024)
